The source of these data is ChEMBL document CHEMBL5715260, “Selectivity Literature for EUbOPEN Chemogenomic Library” (2024).

The target of test [1] is Oxysterols receptor LXR-alpha (Homo sapiens) (UniProt Q13133). In words: Selectivity interaction (Reporter gene assay) EUB0001174a NR1H3. To be noted: screened at recom. conc., Selectivity number of off-targets 1.0, Selectivity number of targets 19.0, Source Knowledge inhouse. Set-up: recommended concentration 1 uM.
Test [2] addresses T1, Oxysterols receptor LXR-beta (Homo sapiens) (UniProt P55055).
T1 sequence (whole entry): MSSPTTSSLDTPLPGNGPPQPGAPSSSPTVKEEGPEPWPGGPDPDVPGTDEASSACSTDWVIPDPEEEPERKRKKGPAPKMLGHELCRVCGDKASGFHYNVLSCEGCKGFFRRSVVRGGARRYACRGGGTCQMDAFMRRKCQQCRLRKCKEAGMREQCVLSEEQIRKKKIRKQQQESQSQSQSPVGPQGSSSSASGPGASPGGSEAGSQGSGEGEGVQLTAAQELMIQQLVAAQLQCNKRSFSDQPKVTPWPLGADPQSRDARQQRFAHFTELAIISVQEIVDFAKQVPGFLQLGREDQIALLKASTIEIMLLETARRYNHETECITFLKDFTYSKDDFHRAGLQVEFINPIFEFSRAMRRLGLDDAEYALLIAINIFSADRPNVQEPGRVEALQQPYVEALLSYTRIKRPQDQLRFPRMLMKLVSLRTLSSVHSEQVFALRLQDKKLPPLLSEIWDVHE
In words: Selectivity interaction (Reporter gene assay) EUB0001174a NR1H2. Further details: recommended concentration 1 uM. To be noted: screened at recom. conc., Selectivity number of off-targets 1.0, Selectivity number of targets 19.0, Source Knowledge inhouse.

Test [3] has as its target Nuclear receptor subfamily 2 group E member 1 (Homo sapiens) (UniProt Q9Y466). In words: Selectivity interaction (Reporter gene assay) EUB0001174a NR2E1. Set-up: recommended concentration 1 uM. To be noted: screened at recom. conc., Selectivity number of off-targets 1.0, Selectivity number of targets 5.0, Source Knowledge inhouse. On the technique in general: Reporter assays use an easily measured gene product as a stand-in for the process of interest.

Test [4] concerns the target T2, Hepatocyte nuclear factor 4-alpha (Homo sapiens) (UniProt P41235).
T2 sequence (whole entry): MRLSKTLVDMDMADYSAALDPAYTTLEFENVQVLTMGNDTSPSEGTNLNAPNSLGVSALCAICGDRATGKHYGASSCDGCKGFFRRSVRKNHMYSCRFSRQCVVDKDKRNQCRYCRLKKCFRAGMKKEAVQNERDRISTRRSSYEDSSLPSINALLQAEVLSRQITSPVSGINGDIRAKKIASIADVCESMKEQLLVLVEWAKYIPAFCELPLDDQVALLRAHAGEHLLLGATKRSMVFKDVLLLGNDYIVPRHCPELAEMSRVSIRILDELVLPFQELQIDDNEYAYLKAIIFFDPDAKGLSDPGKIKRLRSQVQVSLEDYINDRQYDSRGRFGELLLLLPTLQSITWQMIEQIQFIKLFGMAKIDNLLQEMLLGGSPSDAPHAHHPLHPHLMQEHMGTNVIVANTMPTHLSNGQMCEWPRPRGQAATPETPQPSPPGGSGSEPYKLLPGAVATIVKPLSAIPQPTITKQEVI
In words: Selectivity interaction (Reporter gene assay) EUB0001174a HNF4A. Further details: recommended concentration 1 uM.

For test [5], the target named is T3, Nuclear receptor subfamily 2 group C member 1 (Homo sapiens) (UniProt P13056).
T3 sequence (whole entry): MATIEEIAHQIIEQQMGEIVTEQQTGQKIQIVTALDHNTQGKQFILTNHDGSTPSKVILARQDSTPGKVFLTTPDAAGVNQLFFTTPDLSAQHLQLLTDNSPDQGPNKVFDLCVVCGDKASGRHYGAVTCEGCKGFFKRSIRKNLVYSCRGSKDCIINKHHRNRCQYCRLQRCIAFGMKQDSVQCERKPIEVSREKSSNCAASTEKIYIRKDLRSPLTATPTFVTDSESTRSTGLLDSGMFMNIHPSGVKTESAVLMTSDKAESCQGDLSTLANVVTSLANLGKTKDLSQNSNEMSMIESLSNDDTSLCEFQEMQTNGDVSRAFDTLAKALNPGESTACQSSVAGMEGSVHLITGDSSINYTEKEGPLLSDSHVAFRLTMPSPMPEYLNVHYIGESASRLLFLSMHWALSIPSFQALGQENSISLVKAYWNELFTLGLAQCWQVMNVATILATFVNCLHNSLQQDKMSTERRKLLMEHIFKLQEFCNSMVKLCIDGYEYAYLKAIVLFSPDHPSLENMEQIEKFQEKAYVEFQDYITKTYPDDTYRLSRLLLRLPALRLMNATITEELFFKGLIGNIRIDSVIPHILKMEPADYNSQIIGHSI
In words: Selectivity interaction (Reporter gene assay) EUB0001174a NR2C1. Further details: recommended concentration 1 uM.

The target in test [6] is Nuclear receptor subfamily 4immunitygroup A member 1 (Homo sapiens) (UniProt P22736). In words: Selectivity interaction (Reporter gene assay) EUB0001174a NR4A1. Set-up: recommended concentration 1 uM.
Chain of Nuclear receptor subfamily 4immunitygroup A member 1 (Homo sapiens) (P22736 whole entry): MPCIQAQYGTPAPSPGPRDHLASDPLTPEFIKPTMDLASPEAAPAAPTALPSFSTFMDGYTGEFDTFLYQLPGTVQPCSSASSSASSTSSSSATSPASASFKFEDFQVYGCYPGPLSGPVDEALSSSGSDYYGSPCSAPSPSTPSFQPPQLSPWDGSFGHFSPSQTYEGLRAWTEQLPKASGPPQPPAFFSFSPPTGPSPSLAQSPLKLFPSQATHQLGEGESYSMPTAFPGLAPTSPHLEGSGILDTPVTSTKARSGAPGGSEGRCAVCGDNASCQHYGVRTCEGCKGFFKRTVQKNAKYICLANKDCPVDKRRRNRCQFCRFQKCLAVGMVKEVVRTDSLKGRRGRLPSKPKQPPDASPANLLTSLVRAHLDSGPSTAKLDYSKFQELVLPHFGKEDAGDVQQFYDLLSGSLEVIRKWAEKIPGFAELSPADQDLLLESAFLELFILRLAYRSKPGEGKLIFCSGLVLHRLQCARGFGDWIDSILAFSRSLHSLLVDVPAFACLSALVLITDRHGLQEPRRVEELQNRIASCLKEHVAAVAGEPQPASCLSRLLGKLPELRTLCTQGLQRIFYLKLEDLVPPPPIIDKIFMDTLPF
In test [7] the target is Steroidogenic factor 1 (Homo sapiens) (UniProt Q13285). In words: Selectivity interaction (Reporter gene assay) EUB0001174a NR5A1. Set-up: recommended concentration 1 uM.
Chain of Steroidogenic factor 1 (Homo sapiens) (Q13285 whole entry): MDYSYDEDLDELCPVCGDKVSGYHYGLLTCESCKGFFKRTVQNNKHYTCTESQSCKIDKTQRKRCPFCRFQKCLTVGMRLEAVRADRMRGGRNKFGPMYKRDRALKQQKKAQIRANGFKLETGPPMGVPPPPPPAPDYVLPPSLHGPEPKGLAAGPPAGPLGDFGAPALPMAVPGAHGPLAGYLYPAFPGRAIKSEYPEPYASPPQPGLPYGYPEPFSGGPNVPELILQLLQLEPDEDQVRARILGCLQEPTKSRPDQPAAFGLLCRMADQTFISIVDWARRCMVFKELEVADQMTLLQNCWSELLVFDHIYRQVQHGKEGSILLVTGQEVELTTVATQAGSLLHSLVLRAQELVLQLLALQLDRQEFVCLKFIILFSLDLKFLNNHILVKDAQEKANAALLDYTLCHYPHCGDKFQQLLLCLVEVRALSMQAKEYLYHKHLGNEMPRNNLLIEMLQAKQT
The target of test [8] is T4, Alpha trans-inducing protein (Human alphaherpesvirus 1) (UniProt A0A5J6DW59). In words: Selectivity interaction (Reporter gene assay) EUB0001174a UL48. Further details: recommended concentration 1 uM.
T4 sequence (A0A5J6DW59 as listed by the source): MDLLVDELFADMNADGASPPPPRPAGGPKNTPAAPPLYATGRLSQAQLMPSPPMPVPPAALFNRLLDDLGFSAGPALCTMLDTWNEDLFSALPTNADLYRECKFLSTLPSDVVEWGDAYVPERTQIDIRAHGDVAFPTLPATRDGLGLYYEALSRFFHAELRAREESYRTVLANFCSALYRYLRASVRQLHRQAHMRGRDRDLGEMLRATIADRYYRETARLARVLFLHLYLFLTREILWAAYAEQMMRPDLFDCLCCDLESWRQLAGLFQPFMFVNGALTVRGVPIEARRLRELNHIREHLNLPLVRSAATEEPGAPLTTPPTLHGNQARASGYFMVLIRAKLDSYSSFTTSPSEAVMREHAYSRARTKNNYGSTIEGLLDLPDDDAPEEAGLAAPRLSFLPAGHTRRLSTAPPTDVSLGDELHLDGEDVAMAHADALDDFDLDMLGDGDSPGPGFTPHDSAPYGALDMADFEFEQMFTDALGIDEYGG
Test [9] deals with T5, Retinoic acid receptor RXR-alpha (Homo sapiens) (UniProt P19793).
T5 sequence (whole entry): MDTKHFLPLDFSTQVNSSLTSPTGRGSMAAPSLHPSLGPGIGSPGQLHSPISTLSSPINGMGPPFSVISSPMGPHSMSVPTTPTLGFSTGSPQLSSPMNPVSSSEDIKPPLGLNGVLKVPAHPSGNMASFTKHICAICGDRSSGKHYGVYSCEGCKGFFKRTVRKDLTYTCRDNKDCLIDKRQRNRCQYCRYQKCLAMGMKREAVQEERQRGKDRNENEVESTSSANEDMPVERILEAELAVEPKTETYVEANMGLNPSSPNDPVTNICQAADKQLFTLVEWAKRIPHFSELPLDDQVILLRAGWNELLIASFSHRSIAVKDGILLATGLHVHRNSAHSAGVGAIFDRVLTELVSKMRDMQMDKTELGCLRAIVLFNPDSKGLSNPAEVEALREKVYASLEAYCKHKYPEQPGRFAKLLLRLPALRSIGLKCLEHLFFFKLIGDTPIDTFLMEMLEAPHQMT
In words: Selectivity interaction (Reporter gene assay) EUB0001174a RXRA. Set-up: recommended concentration 1 uM. To be noted: reference bexarotene 1 uM, Selectivity number of off-targets 0.0, Selectivity number of targets 1.0, Source Knowledge inhouse.

Test [10] addresses T2, Hepatocyte nuclear factor 4-alpha (Homo sapiens). In words: Selectivity interaction (Reporter gene assay) EUB0001482aCl HNF4A. Set-up: recommended concentration 10 uM.
Test [11] concerns the target T3, Nuclear receptor subfamily 2 group C member 1 (Homo sapiens). In words: Selectivity interaction (Reporter gene assay) EUB0001482aCl NR2C1. Set-up: recommended concentration 10 uM.
Test [12] deals with Nuclear receptor subfamily 2 group E member 1 (Homo sapiens) (UniProt Q9Y466). In words: Selectivity interaction (Reporter gene assay) EUB0001482aCl NR2E1. Set-up: recommended concentration 10 uM.
Chain of Nuclear receptor subfamily 2 group E member 1 (Homo sapiens) (Q9Y466 whole entry): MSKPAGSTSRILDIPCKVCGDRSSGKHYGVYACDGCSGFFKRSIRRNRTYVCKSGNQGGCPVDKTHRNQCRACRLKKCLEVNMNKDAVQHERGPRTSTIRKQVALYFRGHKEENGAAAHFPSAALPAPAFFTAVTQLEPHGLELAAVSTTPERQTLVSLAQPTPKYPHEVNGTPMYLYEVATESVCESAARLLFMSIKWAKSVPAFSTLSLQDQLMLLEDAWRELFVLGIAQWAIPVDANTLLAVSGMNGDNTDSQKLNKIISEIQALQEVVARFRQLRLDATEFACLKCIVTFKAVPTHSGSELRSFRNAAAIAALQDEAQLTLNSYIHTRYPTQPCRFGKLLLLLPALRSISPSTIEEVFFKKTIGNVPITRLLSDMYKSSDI
The target in test [13] is Nuclear receptor subfamily 4immunitygroup A member 1 (Homo sapiens) (UniProt P22736). In words: Selectivity interaction (Reporter gene assay) EUB0001482aCl NR4A1. Set-up: recommended concentration 10 uM.
Test [14] concerns the target Steroidogenic factor 1 (Homo sapiens) (UniProt Q13285). In words: Selectivity interaction (Reporter gene assay) EUB0001482aCl NR5A1. Set-up: recommended concentration 10 uM.
The target of test [15] is T4, Alpha trans-inducing protein (Human alphaherpesvirus 1). In words: Selectivity interaction (Reporter gene assay) EUB0001482aCl UL48. Further details: recommended concentration 10 uM.
The target of test [16] is T5, Retinoic acid receptor RXR-alpha (Homo sapiens). In words: Selectivity interaction (Reporter gene assay) EUB0001482aCl RXRA. Further details: recommended concentration 10 uM. To be noted: reference bexarotene 1 uM, Selectivity number of off-targets 0.0, Selectivity number of targets 1.0, Source Knowledge inhouse.
The target of test [17] is T2, Hepatocyte nuclear factor 4-alpha (Homo sapiens). In words: Selectivity interaction (Reporter gene assay) EUB0001477a HNF4A. Set-up: recommended concentration 1 uM.
Test [18] has as its target T3, Nuclear receptor subfamily 2 group C member 1 (Homo sapiens). In words: Selectivity interaction (Reporter gene assay) EUB0001477a NR2C1. Further details: recommended concentration 1 uM.
Test [19] deals with Nuclear receptor subfamily 2 group E member 1 (Homo sapiens) (UniProt Q9Y466). In words: Selectivity interaction (Reporter gene assay) EUB0001477a NR2E1. Further details: recommended concentration 1 uM.
The target of test [20] is Nuclear receptor subfamily 4immunitygroup A member 1 (Homo sapiens) (UniProt P22736). In words: Selectivity interaction (Reporter gene assay) EUB0001477a NR4A1. Further details: recommended concentration 1 uM.
In test [21] the target is Steroidogenic factor 1 (Homo sapiens) (UniProt Q13285). In words: Selectivity interaction (Reporter gene assay) EUB0001477a NR5A1. Set-up: recommended concentration 1 uM.
Test [22] addresses T4, Alpha trans-inducing protein (Human alphaherpesvirus 1). In words: Selectivity interaction (Reporter gene assay) EUB0001477a UL48. Further details: recommended concentration 1 uM.
Test [23] deals with T5, Retinoic acid receptor RXR-alpha (Homo sapiens). In words: Selectivity interaction (Reporter gene assay) EUB0001477a RXRA. Set-up: recommended concentration 1 uM. To be noted: reference bexarotene 1 uM, Selectivity number of off-targets 0.0, Selectivity number of targets 1.0, Source Knowledge inhouse.
The target of test [24] is T1, Oxysterols receptor LXR-beta (Homo sapiens). In words: Selectivity interaction (Reporter gene assay) EUB0001173a NR1H2. Set-up: recommended concentration 1 uM. To be noted: screened at recom. conc., Selectivity number of off-targets 1.0, Selectivity number of targets 19.0, Source Knowledge inhouse.
Test [25] deals with T2, Hepatocyte nuclear factor 4-alpha (Homo sapiens). In words: Selectivity interaction (Reporter gene assay) EUB0001173a HNF4A. Set-up: recommended concentration 1 uM.
The target in test [26] is T3, Nuclear receptor subfamily 2 group C member 1 (Homo sapiens). In words: Selectivity interaction (Reporter gene assay) EUB0001173a NR2C1. Set-up: recommended concentration 1 uM.
Test [27] deals with Nuclear receptor subfamily 2 group E member 1 (Homo sapiens) (UniProt Q9Y466). In words: Selectivity interaction (Reporter gene assay) EUB0001173a NR2E1. Further details: recommended concentration 1 uM.
Test [28] has as its target Nuclear receptor subfamily 4immunitygroup A member 1 (Homo sapiens) (UniProt P22736). In words: Selectivity interaction (Reporter gene assay) EUB0001173a NR4A1. Set-up: recommended concentration 1 uM.
The target of test [29] is Steroidogenic factor 1 (Homo sapiens) (UniProt Q13285). In words: Selectivity interaction (Reporter gene assay) EUB0001173a NR5A1. Set-up: recommended concentration 1 uM.
Test [30] deals with T4, Alpha trans-inducing protein (Human alphaherpesvirus 1). In words: Selectivity interaction (Reporter gene assay) EUB0001173a UL48. Further details: recommended concentration 1 uM.
Test [31] concerns the target T5, Retinoic acid receptor RXR-alpha (Homo sapiens). In words: Selectivity interaction (Reporter gene assay) EUB0001173a RXRA. Further details: recommended concentration 1 uM.

Chain of Oxysterols receptor LXR-alpha (Homo sapiens) (Q13133 whole entry): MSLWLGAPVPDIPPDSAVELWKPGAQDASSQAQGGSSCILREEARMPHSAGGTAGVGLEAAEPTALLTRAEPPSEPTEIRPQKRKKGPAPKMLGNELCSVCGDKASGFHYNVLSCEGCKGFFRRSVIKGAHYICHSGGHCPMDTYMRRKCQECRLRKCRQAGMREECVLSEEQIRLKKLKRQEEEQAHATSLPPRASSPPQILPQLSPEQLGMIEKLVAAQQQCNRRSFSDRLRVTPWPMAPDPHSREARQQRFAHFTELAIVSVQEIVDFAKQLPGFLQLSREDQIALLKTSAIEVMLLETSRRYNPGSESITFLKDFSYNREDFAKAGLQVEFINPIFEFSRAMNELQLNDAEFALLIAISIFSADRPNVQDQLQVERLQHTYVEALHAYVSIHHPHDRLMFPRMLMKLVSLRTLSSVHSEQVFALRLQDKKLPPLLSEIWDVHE

In the case of `COc1cccc(Cn2cc(C(=O)Nc3ccc(C)c(S(=O)(=O)N4CCOCC4)c3)c(-c3ccc(C)cc3)n2)c1`, the Remaining activity in [1] came out at 0.724; in test [2] it was 0.617; in test [3], 0.432; in test [5] it was 0.543; in test [6], 0.847; in test [7] it was 0.982. Further, the Fold activation in test [4] stood at 1.1. The P-value in test [8] was 1.23e-07. In test [9], this compound showed a Relative activation of 0.49%.

As to `C[C@H](CCOc1cccc(CC(=O)O)c1)N(Cc1cccc(C(F)(F)F)c1Cl)CC(c1ccccc1)c1ccccc1`, the Fold activation in test [10] was 1.02; in [11], 1.42; in test [12], 1.41; in test [13], 1.25; in test [14], 1.11. This compound had a P-value in test [15] of 0.0185. Moreover, the Relative activation in test [16] came to 0.905%.

Regarding `Clc1ccc(-c2nc3sccn3c2/C=N/OCc2ccc(Cl)c(Cl)c2)cc1`, the Fold activation in test [17] amounted to 1.11; in [18], 1.23; in test [21], 1.19. In addition, the figures for the Remaining activity in test [19] and in test [20] were 0.989 and 0.934, respectively. The compound also showed a P-value in [22] of 0.000158. In test [23], this compound came in with a Relative activation of 0.637%.

Turning to `Cn1cc(C(=O)O)c2ccc(N3CCC(OCc4c(-c5c(Cl)cccc5Cl)noc4C4CC4)CC3)cc21`, the Fold activation was determined as 5.89 in [24]; 1.11 in [25]; 1.23 in [26]; 1.08 in [27]; 1.01 in test [28]; 0.997 in test [29]. In test [30], this compound registered a P-value of 1.58e-05. The compound also displayed a Relative activation in test [31] of 0.539%.
